# Laboratory results: US20140017223A1, “Pharmaceutical Compositions Comprising A Pancreatic Enzyme Preparation With Viral Infectivity Reduced Below A Significant Level And Methods Of Preparing And Using The Same” (Aptalis Pharma Canada Inc., priority 2010, published 2014)
# “And” between values parts separate entries of the source, which are not always exact repeats. Equal entries are not always repeated.
# Columns and labels:
# EMCV = test: Inactivation of spiked EMCV in pancrelipase by BPL, TCID50 titration on VERO cells (Example 2); assay type: cell-based, porcine encephalomyocarditis virus (EMCV); settings: 48 h, 20° C.; for Detected EMCV titer: 0*=below detection limit of 10^3 TCID50/g
# Method: Four different lots of pancrelipase powders were dissolved in 100 mM Tris, pH=8.3, at a concentration of 100 mg/ml. EMCV virus stock (prepared by Meng X J, Paul P S, Vaughn E M, Zimmerman J J. Development of a radiolabeled nucleic acid probe for the detection of encephalomyocarditis virus of swine. J Vet Diagn Invest. 1993 5:254-8) was mixed with the pancrelipase using slow shaking at room temperature for one day such that the final concentration of pancrelipase was 100 mg/ml. Aliquots were taken from the EMCV-spiked pancrelipase stocks and each was incubated with different concentrations of BPL (available from Sigma-Aldrich, St. Louis, Mo.) (except the control) for 48 hours at room temperature (20° C.). The level of inactivation was measured by the titration of EMCV infectivity on VERO cells using serial dilutions and determining the TCID50 as described in Hierholzer, J. C., Killington, R. A., 1996. Virus isolation and quantitation. In: Mahy, B. W. J., Kangro, H. O. (Eds.), Virology methods manual. Academic Press, London, pp. 25-46.
# PPV [1] = test: Kinetics of PPV inactivation in PEP samples with 0.4% BPL at 4° C. (Example 7); assay type: cell-based, porcine parvovirus (PPV); settings: PEP conc. 100 mg/mL
# Method: Samples prepared in the same way as described in Example 1 were treated at 4° C. in an aqueous media (i.e. mixture of water and isopropyl alcohol).
# PPV [2] = test: Inactivation of PPV by BPL (30 min, 25° C.), BPL then inactivated with sodium thiosulfate (Example 9); assay type: cell-based, porcine parvovirus (PPV); settings: thiosulfate quench
# Method: (§1) 4.5 g pancrelipase (PEP) powder was dissolved in 44 ml ice cold 100 mM Tris (pH=8.3) by frequently mixing a 50-ml plastic tube that was kept on ice most of the time except when shaking. The dissolved sample was spiked with 1 ml (2×0.5 ml) PPV stock (prepared at the Institut National de la Recherche Scientifique, Québec, Canada using standard protocols (Arella et al., Physicichemical properties, production, and purification of parvoviruses. 1990, In Tijssen, P. (ed.), CRC handbook of parvoviruses. Boca Raton, Fla.: CRC Press, 11-30)) 10^7 FFID50/ml; see Example 8 and Table 8) and was mixed for another 10 minutes.
# (§2) Three aliquots of the dissolved pancrelipase were transferred into tubes (A-C) and kept on ice while (A) no BPL—the control), (B) (0.4 vol % BPL), or (C) (0.8 vol % BPL) was added to them. After a brief mixing by a vortex machine, the tubes were incubated for 30 minutes at 25° C. At the end of the incubation, the tubes were transferred on to ice and immediately four aliquots were transferred from each experimental condition into new tubes (a-d). These tubes were placed into the mixture of acetone/dry ice for fast freezing. Later, the samples were stored at −80° C.
# From the remaining solutions, aliquots from each experiment (using triplicates) were diluted 100 times in cell culture medium containing sodium thiosulfate and supplemented with traces of chloroform. Samples were briefly mixed and kept at 4° C. for at least 6 hours before further dilution for the FFID50 infectivity determination. See Example 9.
# (§3) The experiment above was repeated two more times (altogether: experiments 1-3).
# Table 9 presents the result of the inactivation of PPV by BPL for 30 min at 25° C. and subsequent inactivation of the BPL by incubating the BPL-containing PEP solutions with sodium thiosulfate for at least 6 hours at 4° C. As discussed above, three independent experiments with BPL inactivation after PPV spiking were followed by inactivation of BPL by sodium thiosulfate (3 parallels for each experiment).
# PPV [3] = test: Inactivation of PPV by BPL (30 min, 25° C.) measured from frozen and lyophilized samples (Example 10); assay type: cell-based, porcine parvovirus (PPV)
# Method: as §1, §2, §3
# The frozen samples were lyophilized at −45° C. for two days, and the pancrelipase powders were kept at 4-10° C. Samples a-b from all the experiments were dissolved in water. Infectivity measurements were done with diluted samples using the 400 times diluted samples as the lowest dilution step to determine the FFID50. To easily compare the results for the different experiments, all of the obtained infectivity data were converted to specific infectivity (FFID50/gram PEP). See Example 10 and Table 10.
# Inactivation results for PEP samples containing PPV inactivated by BPL at 25° C. for 30 min which was subsequently inactivated by freezing followed by lyophilization are presented in Table 10.
# lipase = test: Lipase activity of pancrelipase after BPL treatment, freezing and lyophilization (USP 31 method); assay type: biochemical; settings: for Loss of Lipase Activity: pancrelipase, freezing, lyophilization, precision 5-10%
# Method: (§4) Enzymatic activity for the enzymes of a PEP (e.g., proteases, lipases, and amylases) can be determined, for example, by using the United States Pharmacopeia (USP) monographed methods (The United States Pharmacopeia and the National Formulary (USP 31/NF 26). 2008. Rockville (MD): United States Pharmacopeial Convention, Inc.).
# (§5) The samples c-d from all the experiments were tested for lipase, protease, and amylase enzymatic activity using USP 31 monographed methods. See Example 11 and Table 11.
# (§6) Table 11 presents the lipase, protease, and amylase activity for aliquots of the pancrelipase after BPL treatment for 30 min at 25° C. followed by freezing and lyophilization (same treatment as for samples in Example 10).
# protease = test: Protease activity of pancrelipase after BPL treatment, freezing and lyophilization (USP 31 method); assay type: biochemical; settings: for Loss of Protease Activity: pancrelipase, freezing, lyophilization, precision 5-10%
# Method: as §4, §5, §6
# [4] = lyophilized samples treated with 0.4% BPL and 0.8% BPL
smiles,measurement,setting,value
"O=C1CCO1 [BPL, Beta-propiolactone]",EMCV Titer reduction,"EMCV; PEP #1, 0.1% (v/v) BPL",1.33 × 10^2 TCID50/g
same,Detected EMCV titer,"EMCV; PEP #1, 0.1% (v/v) BPL",4.22 × 10^5 TCID50/g
same,EMCV Titer reduction,"EMCV; PEP #1, 0.2% (v/v) BPL",>10^5 TCID50/g
same,Detected EMCV titer,"EMCV; PEP #1, 0.2% (v/v) BPL",< 0* TCID50/g
same,EMCV Titer reduction,"EMCV; PEP #1, 0.4% (v/v) BPL",>10^5 TCID50/g
same,Detected EMCV titer,"EMCV; PEP #1, 0.4% (v/v) BPL",< 0* TCID50/g
same,EMCV Titer reduction,"EMCV; PEP #1, 0.8% (v/v) BPL",>10^5 TCID50/g
same,Detected EMCV titer,"EMCV; PEP #1, 0.8% (v/v) BPL",< 0* TCID50/g
same,EMCV Titer reduction,"EMCV; PEP #2, 0.1% (v/v) BPL",1.78 × 10^2 TCID50/g
same,Detected EMCV titer,"EMCV; PEP #2, 0.1% (v/v) BPL",3.16 × 10^5 TCID50/g
same,EMCV Titer reduction,"EMCV; PEP #2, 0.2% (v/v) BPL",>10^5 TCID50/g
same,Detected EMCV titer,"EMCV; PEP #2, 0.2% (v/v) BPL",< 0* TCID50/g
same,EMCV Titer reduction,"EMCV; PEP #2, 0.4% (v/v) BPL",>10^5 TCID50/g
same,Detected EMCV titer,"EMCV; PEP #2, 0.4% (v/v) BPL",< 0* TCID50/g
same,EMCV Titer reduction,"EMCV; PEP #2, 0.8% (v/v) BPL",>10^5 TCID50/g
same,Detected EMCV titer,"EMCV; PEP #2, 0.8% (v/v) BPL",< 0* TCID50/g
same,EMCV Titer reduction,"EMCV; PEP #3, 0.1% (v/v) BPL",>10^5 TCID50/g
same,Detected EMCV titer,"EMCV; PEP #3, 0.1% (v/v) BPL",< 0* TCID50/g
same,EMCV Titer reduction,"EMCV; PEP #3, 0.2% (v/v) BPL",>10^5 TCID50/g
same,Detected EMCV titer,"EMCV; PEP #3, 0.2% (v/v) BPL",< 0* TCID50/g
same,EMCV Titer reduction,"EMCV; PEP #3, 0.4% (v/v) BPL",>10^5 TCID50/g
same,Detected EMCV titer,"EMCV; PEP #3, 0.4% (v/v) BPL",< 0* TCID50/g
same,EMCV Titer reduction,"EMCV; PEP #3, 0.8% (v/v) BPL",>10^5 TCID50/g
same,Detected EMCV titer,"EMCV; PEP #3, 0.8% (v/v) BPL",< 0* TCID50/g
same,EMCV Titer reduction,"EMCV; PEP #4, 0.1% (v/v) BPL",1.33 × 10^3 TCID50/g
same,Detected EMCV titer,"EMCV; PEP #4, 0.1% (v/v) BPL",7.50 × 10^4 TCID50/g
same,EMCV Titer reduction,"EMCV; PEP #4, 0.2% (v/v) BPL",>10^5 TCID50/g
same,Detected EMCV titer,"EMCV; PEP #4, 0.2% (v/v) BPL",< 0* TCID50/g
same,EMCV Titer reduction,"EMCV; PEP #4, 0.4% (v/v) BPL",>10^5 TCID50/g
same,Detected EMCV titer,"EMCV; PEP #4, 0.4% (v/v) BPL",< 0* TCID50/g
same,EMCV Titer reduction,"EMCV; PEP #4, 0.8% (v/v) BPL",>10^5 TCID50/g
same,Detected EMCV titer,"EMCV; PEP #4, 0.8% (v/v) BPL",< 0* TCID50/g
same,Average PPV titer (log reduction),PPV [1]; reaction time 15 min,1.1 log
same,Average PPV titer (log reduction),PPV [1]; reaction time 30 min,1.6 log
same,Average PPV titer (log reduction),PPV [1]; reaction time 45 min,2 log and 2.0 log
same,Average PPV titer (log reduction),PPV [1]; reaction time 60 min,2.2 log
same,Average PPV titer (log reduction),PPV [1]; reaction time 720 min,4.8 log
same,Mean Infectivity ± SD,"PPV [2]; 0.4% BPL, 30 min 25° C.",2.63 ± 6.86 × 10^4 FFID50/g
same,PPV Titer reduction,"PPV [2]; 0.4% BPL, 30 min 25° C.",0.65 × 10^2 FFID50/g
same,Average Results per Sample,"PPV [2]; 0.4% BPL, 30 min 25° C., experiments B1-B3",2.32 × 10^4 FFID50/g and 2.15 × 10^4 FFID50/g and 3.42 × 10^4 FFID50/g
same,"Results (PPV infectivity, single determinations)","PPV [2]; 0.4% BPL, 30 min 25° C., experiments B1-B3, 3 parallels each",2.50 × 10^4 FFID50/g and 1.98 × 10^4 FFID50/g and 3.14 × 10^4 FFID50/g and 3.96 × 10^4 FFID50/g
same,Reduction of virus infectivity,"PPV [2]; 0.4 vol % BPL, room temperature, 30 minutes",more than 60 times
same,Mean Infectivity ± SD,"PPV [2]; 0.8% BPL, 30 min 25° C.",5.25 ± 5.25 × 10^3 FFID50/g
same,PPV Titer reduction,"PPV [2]; 0.8% BPL, 30 min 25° C.",0.31 × 10^4 FFID50/g
same,Inactivation of PPV,"PPV [2]; 0.8% BPL, room temperature, 30 minutes",three magnitudes of order
same,Reduction of PPV titer,PPV [3]; 0.4% BPL,0.27 × 10^3 FFID50/g
same,Reduction of PPV titer,PPV [3]; 0.8% BPL,1.55 × 10^6 FFID50/g
same,Average Results (per sample a/b),"PPV [3]; 0.8% BPL, 0* means under detection limit",< 0* FFID50/g
same,Average Results (per experiment),"PPV [3]; 0.8% BPL, experiments C1-C3, 0* means under detection limit",< 0* FFID50/g
same,PPV infectivity (single determinations),"PPV [3]; 0.8% BPL, samples C1a-C3b, 0* means under detection limit",< 0* FFID50/g
same,Lipase activity maintained,lipase; [4],maintained the majority
same,Loss of Lipase Activity,lipase; 0.4% BPL 30 min 25° C.,19.79%
same,Loss of Lipase Activity,lipase; 0.8% BPL 30 min 25° C.,26.40%
same,Protease activity maintained,protease; [4],maintained the majority
same,Loss of Protease Activity,protease; 0.4% BPL 30 min 25° C.,0%
same,Loss of Protease Activity,protease; 0.8% BPL 30 min 25° C.,0%
